For one compound, CARM1 degradation results are on record in US20250222120A1, “SYNTHESIS OF NOVEL SMALL MOLECULE CARM1 DEGRADERS, COMPOUNDS FORMED THEREBY, AND PHARMACEUTICAL COMPOSITIONS CONTAINING THEM” (Wisconsin Alumni Research Foundation, priority 2024, published 2025).

Assay [1] has as its target T1, CARM1 (Homo sapiens, UniProt Q86X55).
T1 sequence (Q86X55 1-608): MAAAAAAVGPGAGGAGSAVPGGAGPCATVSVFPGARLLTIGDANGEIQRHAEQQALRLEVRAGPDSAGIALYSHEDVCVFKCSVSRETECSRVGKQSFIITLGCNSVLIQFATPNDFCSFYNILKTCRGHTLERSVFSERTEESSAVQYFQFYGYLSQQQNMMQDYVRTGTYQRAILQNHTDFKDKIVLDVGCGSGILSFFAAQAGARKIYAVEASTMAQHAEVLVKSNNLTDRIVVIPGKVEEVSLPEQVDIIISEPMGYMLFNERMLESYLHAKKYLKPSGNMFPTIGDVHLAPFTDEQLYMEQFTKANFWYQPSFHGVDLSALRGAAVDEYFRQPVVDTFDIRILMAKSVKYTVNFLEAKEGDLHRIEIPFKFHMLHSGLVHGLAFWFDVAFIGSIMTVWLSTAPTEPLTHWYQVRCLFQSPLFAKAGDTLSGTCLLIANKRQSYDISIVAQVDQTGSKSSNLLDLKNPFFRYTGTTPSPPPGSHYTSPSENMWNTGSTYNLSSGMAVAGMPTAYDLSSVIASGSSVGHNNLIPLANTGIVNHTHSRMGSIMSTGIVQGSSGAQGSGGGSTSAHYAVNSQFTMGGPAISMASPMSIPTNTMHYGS
The assay can be described thus: CARM1 degradation by western blot in MDA-MB-231 cells. Type of assay: cell-based. As to conditions: triple-negative MDA-MB-231 cells, 0.5 μM, after 24 or 48 h. From the text:
FIGS. 7A-7F. […] Cell lysates were collected and CARM1, methyl-BAF155, total BAF155, methyl-PABP1, and total PABP1 levels were detected by Western blot. […] Cell lysates were collected and CARM1, methyl-BAF155, total BAF155 levels were detected by Western blot. […] Cell proliferation rate normalized to day 0 was plotted. […] Migrated cells were stained with 1% crystal violet and the percentage of migrated cells were plotted. Data mean±s.d. ***. P≤0.001.
(§1) Western Blot Assay. Cells were harvested and washed with Dulbecco's phosphate-buffered saline (PBS), then lysed with 1×RIPA lysis buffer (50 mM Tris pH 7.5, 150 mM NaCl, 1% NP-40, 0.5% sodium deoxycholate, and 0.1% sodium dodecyl sulfate) supplemented with 1 mM phenylmethylsulfonyl fluoride, 10 μg/mL aprotinin, 1 μM leupeptin, and 10 μg/mL pepstatin on ice for 20 min. The supernatant was collected after spinning down at 15000 RPM at 4 degrees Celsius for 10 min. The concentration of whole lysates was quantified using a Bradford assay. 50-75 μg of cell lysates was boiled in 4× Laemmli Loading Dye and boiled at 100 degrees Celsius for 10 min. 25 μg were run in 8% SDS-PAGE gels and transferred to nitrocellulose membranes. Blots were blocked in 5% skim milk in PBST [PBS and 0.1% Tween 20] for 45 min, then incubated with primary antibodies at 4 degrees Celsius overnight. […]
(In general: A western blot detects proteins with antibodies after separation by electrophoresis.)

Assay [2] deals with T1, CARM1. The assay can be described thus: CARM1 degradation by western blot in MCF10A cells. Further details: endogenous in cells. To be noted: normal human mammary epithelial cell model. Type of assay: cell-based. As to the method:
FIG. 5. […] Cell lysates were collected and the CARM1 levels were detected by western blots.
as §1, with “overnight. Blots were washed in PBST for 30 min, then incubated with horseradish peroxidase-linked secondary antibodies (Jackson ImmunoResearch) for 1 hr. Afterwards, blots were washed in PBST for 15-30 min, then treated with chemiluminescent ECL reagent and imaged with the ChemiDoc Imaging System (Bio-Rad) or Azure 600 (Azure Biosystems).” for “overnight.”

On to `CNCCN1CCC(c2cc(CN(C)C(=O)c3cccc(Oc4ccc(OCC(=O)N5CCC(CN6CCC(CN7CCN(CC(=O)N[C@H](C(=O)N8C[C@H](O)C[C@H]8C(=O)N[C@@H](C)c8ccc(-c9scnc9C)cc8)C(C)(C)C)CC7)CC6)CC5)cc4)c3)ccn2)CC1` [Compound 3b, (2S,4R)-1-((S)-3,3-dimethyl-2-(2-(4-((1-((1-(2-(4-(3-(methyl((2-(1-(2-(methylamino)ethyl)piperidin-4-yl)pyridin-4-yl)methyl)carbamoyl)phenoxy)phenoxy)acetyl)piperidin-4-yl)methyl)piperidin-4-yl)methyl)piperazin-1-yl)acetamido)butanoyl)-4-hydroxy-N—((S)-1-(4-(4-methylthiazol-5-yl)phenyl)ethyl)pyrrolidine-2-carboxamide], for which the CARM1 degradation result at CARM1 [1] is “effectively degraded”; at CARM1 [2], “high potency for CARM1 degradation”.
